The values below come from PubChem BioAssay (NCI).

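96-well plates; 48 h exposure; 5 concentrations. Endpoints by linear interpolation between flanking doses. Not reached: highest tested concentration assigned. TGI is the concentration that stops growth completely.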 A value given as a limit tells only on which side of the number the result lay.

Some test systems named below: COLO 205 colon; HOP-62 NSCLC; HS 578T breast; HT29 colon; K-562 leukemia; KM12 colon; MDA-MB-231 breast; MDA-MB-435; MOLT-4 leukemia; NCI-H226 lung; NCI-H522 lung; NCI/ADR-RES ovarian; OVCAR-4 ovarian; OVCAR-5 ovarian; PC-3 prostate; RPMI-8226 leukemia; RXF 393 renal; SF-268 CNS; U251 CNS; SR leukemia.
Common to all, as to test: NCI-60 cell line screen, 48 h

Turning to `CCCCCCCCCCCCCCCCOCC(CCl)OP(=O)(O)OP(=O)(O)OCC1OC(n2ccc(N)nc2=O)C(O)C1O` (configuration not stated), the TGI in the assay with COLO 205 colon, in the assay with HOP-62 NSCLC, in the assay on HS 578T breast, in the assay with HT29 colon, with K-562 leukemia and in the assay on KM12 colon was above 100 µM each time. Moreover, the TGI in the assay with MDA-MB-231 breast, with MDA-MB-435, in the assay with MOLT-4 leukemia, in the assay on NCI-H226 lung, with NCI-H522 lung and in the assay on NCI/ADR-RES ovarian was above 100 µM in each case. In addition, the TGI in the assay with OVCAR-4 ovarian, in the assay on OVCAR-5 ovarian, in the assay with PC-3 prostate, in the assay on RPMI-8226 leukemia, with RXF 393 renal and in the assay on SF-268 CNS was above 100 µM throughout. For the same molecule, the TGI in the assay with U251 CNS was above 100 µM.

In the case of `O=c1[nH]c(=O)n(C2CC(O)C(CO)O2)cc1OCC1CCCCC1` (configuration not stated), the TGI in the assay with COLO 205 colon, in the assay with HOP-62 NSCLC, with HS 578T breast, in the assay with HT29 colon, in the assay with K-562 leukemia and with KM12 colon was above 100 µM throughout. For the same molecule, the TGI in the assay on MDA-MB-231 breast, in the assay on MDA-MB-435, in the assay with MOLT-4 leukemia, in the assay on NCI-H226 lung, in the assay on NCI-H522 lung and in the assay with NCI/ADR-RES ovarian was above 100 µM in each case. The TGI in the assay on OVCAR-4 ovarian, in the assay with OVCAR-5 ovarian, in the assay on PC-3 prostate, in the assay on RXF 393 renal, in the assay with SF-268 CNS and in the assay on SR leukemia was above 100 µM each time. In the assay with U251 CNS, the TGI is above 100 µM.

For the molecule `Cc1nc2ccccc2c(=O)n1NC(=S)Nc1ccc(Cl)cc1[N+](=O)[O-]`, the TGI with COLO 205 colon, in the assay with HOP-62 NSCLC, with HS 578T breast, in the assay with HT29 colon, in the assay on K-562 leukemia and in the assay with KM12 colon was above 100 µM throughout. Further, the TGI in the assay on MDA-MB-231 breast, in the assay on MDA-MB-435, in the assay on MOLT-4 leukemia, with NCI-H522 lung, in the assay with NCI/ADR-RES ovarian and in the assay on OVCAR-4 ovarian was above 100 µM in each case. Also, the TGI in the assay on OVCAR-5 ovarian, in the assay on PC-3 prostate, in the assay with RPMI-8226 leukemia, in the assay with RXF 393 renal, with SF-268 CNS and in the assay on SR leukemia was above 100 µM throughout. The TGI with U251 CNS is above 100 µM.

Consider `CC(C)=CCN1c2ccc(Cl)cc2NC(=O)CC1C` (configuration not stated), for which the TGI is 56.9 µM in the assay with COLO 205 colon; 61.7 µM in the assay on HOP-62 NSCLC; 72.1 µM with HS 578T breast; 37.2 µM with HT29 colon; above 100 µM in the assay with K-562 leukemia; 68.6 µM in the assay with KM12 colon. Further, the TGI with MDA-MB-231 breast is 45.7 µM; with MDA-MB-435, 41.1 µM; in the assay with MOLT-4 leukemia, above 100 µM; with NCI-H226 lung, 46.9 µM; in the assay with NCI-H522 lung it was 47.4 µM; in the assay on OVCAR-4 ovarian, 87.9 µM. For the same molecule, the TGI with OVCAR-5 ovarian is above 100 µM; in the assay on PC-3 prostate it was 61.1 µM; in the assay on RPMI-8226 leukemia, 50.1 µM; with RXF 393 renal, 76 µM; in the assay on SF-268 CNS, above 100 µM; in the assay on SR leukemia, above 100 µM. In the assay on U251 CNS, this molecule had a TGI of 76.6 µM.

Take `Clc1cc(Br)c2c3c(c(Br)cc(Cl)c13)C(Br)=C2Br`: the TGI in the assay on HOP-62 NSCLC was above 100 µM; in the assay with HS 578T breast, above 100 µM; in the assay with HT29 colon it was 61.5 µM; in the assay with K-562 leukemia, above 100 µM; with KM12 colon it was above 100 µM; in the assay on MDA-MB-231 breast, 82 µM. The TGI in the assay with MDA-MB-435 was above 100 µM; with MOLT-4 leukemia, 45.6 µM; with NCI-H226 lung, above 100 µM; in the assay on NCI-H522 lung, 38.8 µM; in the assay with NCI/ADR-RES ovarian, 57.8 µM; with OVCAR-4 ovarian, above 100 µM. Also, the TGI in the assay with OVCAR-5 ovarian was above 100 µM; in the assay on PC-3 prostate it was above 100 µM; in the assay on RPMI-8226 leukemia it was 58.9 µM; with SF-268 CNS, 70.4 µM; with SR leukemia, 58.1 µM; in the assay with U251 CNS, above 100 µM.

Regarding `Cc1cc(-c2nc3ccc(F)cc3s2)ccc1N`, the TGI in the assay on COLO 205 colon, in the assay with HOP-62 NSCLC, in the assay on HS 578T breast, in the assay on HT29 colon, with K-562 leukemia and in the assay on KM12 colon was above 100 µM in each case. In addition, the TGI in the assay on MDA-MB-231 breast, in the assay with MDA-MB-435, in the assay on MOLT-4 leukemia, in the assay with NCI-H226 lung, in the assay on NCI-H522 lung and in the assay with NCI/ADR-RES ovarian was above 100 µM in each case. Also, the TGI in the assay with OVCAR-5 ovarian, with PC-3 prostate, in the assay with RPMI-8226 leukemia, in the assay with RXF 393 renal, with SF-268 CNS and in the assay with SR leukemia was above 100 µM in each case. The molecule also registered a TGI in the assay on U251 CNS above 100 µM.

Take `Cc1ccc(C(=O)OCC(C)C)cc1N=NN(C)C`: the TGI in the assay on COLO 205 colon, in the assay with HOP-62 NSCLC, with HS 578T breast, with HT29 colon, with K-562 leukemia and with KM12 colon was above 100 µM throughout. In addition, the TGI in the assay with MDA-MB-231 breast, with MDA-MB-435, in the assay with MOLT-4 leukemia, in the assay on NCI-H226 lung, in the assay with NCI-H522 lung and in the assay with NCI/ADR-RES ovarian was above 100 µM in each case. Moreover, the TGI in the assay with OVCAR-4 ovarian, with OVCAR-5 ovarian, with PC-3 prostate, with RPMI-8226 leukemia, in the assay on SF-268 CNS and with SR leukemia was above 100 µM throughout. The TGI in the assay with U251 CNS is above 100 µM.
